Values after ≈ are worked out from the molar mass of the structure shown.
Assays:
[1] = test system: Candida albicans; experiment: microbe, parasite or virus in culture; settings: ATCC 90028, ASSAY_TEST Inhibition of Fungal Growth, detection method Absorption (OD530), plate type 384well, NBS, CORNING #3640
Description: Antifungal activity against Candida albicans ATCC 90028 (CO-ADD:FG_001); MIC in YNB media using NBS plates, by OD630

[2] = test system: Klebsiella pneumoniae; experiment: microbe, parasite or virus in culture; settings: ATCC 700603, 18 h, ASSAY_TEST Inhibition of Bacterial Growth, detection method Absorption (OD600), MEDIA CAMHB, plate type 384well, NBS, CORNING #3640
Description: Antibacterial activity against Klebsiella pneumoniae MDR ATCC 70063 (CO-ADD:GN_003); MIC in CAMBH media using NBS plates, by OD(600)

[3] = test system: Acinetobacter baumannii; experiment: microbe, parasite or virus in culture; settings: ATCC 19606, 18 h, ASSAY_TEST Inhibition of Bacterial Growth, detection method Absorption (OD600), MEDIA CAMHB, plate type 384well, NBS, CORNING #3640
Description: Antibacterial activity against Acinetobacter baumannii ATCC 19606 (CO-ADD:GN_034); MIC in CAMBH media using NBS plates, by OD600

[4] = test system: Escherichia coli; experiment: microbe, parasite or virus in culture; settings: ATCC 25922, 18 h, ASSAY_TEST Inhibition of Bacterial Growth, detection method Absorption (OD600), MEDIA CAMHB, plate type 384well, NBS, CORNING #3640
Description: Antibacterial activity against Escherichia coli ATCC 25922 (CO-ADD:GN_001); MIC in CAMBH media using NBS plates, by OD(600)

[5] = test system: Cryptococcus neoformans
Description: Antifungal activity against Cryptococcus neoformans H99 ATCC 208821 (CO-ADD:FG_002); MIC in YNB media using NBS plates, by Resazurin OD(600-570)

[6] = test system: HEK293; experiment: cells; type: functional, Homo sapiens, ATCC CRL1573; settings: Homo sapiens, ATCC CRL1573, HEK293; ASSAY_TEST Inhibition of Cell Viability; detection method Resazurin; Fluorescence (ex560/em590); MEDIA DMEM with 10% FBS; plate type 384well; TC; CORNING #3712; time 18 hr; read-out: CC50
[7] = test system: Pseudomonas aeruginosa; experiment: microbe, parasite or virus in culture; settings: ATCC 27853, 18 h, ASSAY_TEST Inhibition of Bacterial Growth, detection method Absorption (OD600), MEDIA CAMHB, plate type 384well, NBS, CORNING #3640
Description: Antibacterial activity against Pseudomonas aeruginosa ATCC 27853 (CO-ADD:GN_042); MIC in CAMBH media using NBS plates, by OD(600)

[8] = test system: Staphylococcus aureus; experiment: microbe, parasite or virus in culture; settings: ATCC 43300, 18 h, ASSAY_TEST Inhibition of Bacterial Growth, detection method Absorption (OD600), MEDIA CAMHB, plate type 384well, NBS, CORNING #3640
Description: Antibacterial activity against Staphylococcus aureus MRSA ATCC 43300 (CO-ADD:GP_020); MIC in CAMBH media, using NBS plates, by OD(600)

Row | SMILES | MIC [1] | MIC [2] | MIC [3] | MIC [4] | MIC [5] | CC50 [6] [µg/mL] | MIC [7] | MIC [8]
1 | Cn1cc(NC(=O)c2ccc(/C=C/c3ccncc3)cc2)cc1C(=O)Nc1cc(C(=O)NCCN2CCOCC2)n(CCCCl)c1.O=C(O)C(F)(F)F.O=C(O)C(F)(F)F | > 32 µg/mL | > 32 µg/mL | > 32 µg/mL | > 32 µg/mL | 16 µg/mL | 2.7 | > 32 µg/mL | > 32 µg/mL
2 | CC(=N)Nc1cc(C(=O)Nc2cc(C(=O)Nc3cc(C(=O)NCCCN(C)C)n(C)c3)n(C)c2)n(C)c1.O=C(O)C(F)(F)F.O=C(O)C(F)(F)F | > 32 µg/mL | > 32 µg/mL | > 32 µg/mL | > 32 µg/mL | > 32 µg/mL | > 32 | > 32 µg/mL | > 32 µg/mL
3 | CC(C)CCn1cc(NC(=O)c2cc(NC(=O)c3cc(NC(=N)c4cnc5ccccc5c4)cn3C)cn2C)cc1C(=O)NCCCN(C)C.O=C(O)C(F)(F)F.O=C(O)C(F)(F)F | > 32 µg/mL | > 32 µg/mL | > 32 µg/mL | 32 µg/mL | 8 µg/mL | 11.6 | > 32 µg/mL | 32 µg/mL
4 | COc1ccc(/C=C/c2ccc(C(=O)Nc3cc(C(=O)Nc4cc(C(=O)NCCN5CCOCC5)n(C)c4)n(C)c3)cn2)cc1.O=C(O)C(F)(F)F.O=C(O)C(F)(F)F | > 32 µg/mL | > 32 µg/mL | > 32 µg/mL | > 32 µg/mL | > 32 µg/mL | 27.1 | > 32 µg/mL | > 32 µg/mL
5 | Cn1cc(NC(=O)c2ccc(/C=C/c3cnc4ccccc4c3)cc2)cc1C(=O)Nc1nc(C(=O)NCCN2CCOCC2)c(CCc2ccccc2)s1.O=C(O)C(F)(F)F.O=C(O)C(F)(F)F | > 32 µg/mL | > 32 µg/mL | > 32 µg/mL | > 32 µg/mL | > 32 µg/mL | > 32 | > 32 µg/mL | > 32 µg/mL
6 | COC1CCN(CCNC(=O)c2cc(NC(=O)c3cc(NC(=O)c4ccc(/C=C/c5cnc6ccccc6c5)cc4)cn3C)cn2C)CC1 | 32 µg/mL | > 32 µg/mL | > 32 µg/mL | > 32 µg/mL | 16 µg/mL | 2.89 (≈ 4.38 µM) | > 32 µg/mL | ≤ 0.25 µg/mL
7 | COC1CCN(CCNC(=O)c2cc(NC(=O)c3cc(NC(=O)c4ccc(/C=C/c5ccc(N(C)C)cc5)nc4)cn3C)cn2C)CC1.O=C(O)C(F)(F)F.O=C(O)C(F)(F)F | 2 µg/mL | > 32 µg/mL | > 32 µg/mL | > 32 µg/mL | 2 µg/mL | 1.28 | > 32 µg/mL | ≤ 0.25 µg/mL
8 | CC(C)CCn1cc(NC(=O)c2cc(NC(=O)c3cc(NC(=N)N)cn3C)cn2C)cc1C(=O)NCCCN(C)C.O=C(O)C(F)(F)F.O=C(O)C(F)(F)F | > 32 µg/mL | > 32 µg/mL | > 32 µg/mL | > 32 µg/mL | 32 µg/mL | > 32 | > 32 µg/mL | > 32 µg/mL
9 | Cn1cc(NC(=O)c2ccc(/C=C/c3ccncc3)cc2)cc1C(=O)Nc1cc(C(=O)NCCN2CCOCC2)n(CCCN2CCN(Cc3cccc4ccccc34)CC2)c1.O=C(O)C(F)(F)F.O=C(O)C(F)(F)F.O=C(O)C(F)(F)F.O=C(O)C(F)(F)F | 32 µg/mL | > 32 µg/mL | > 32 µg/mL | > 32 µg/mL | 2 µg/mL | 2.03 | > 32 µg/mL | > 32 µg/mL
10 | COCCOC1CCN(CCNC(=O)c2cc(NC(=O)c3cc(NC(=O)c4ccc(/C=C/c5ccc(OC)cc5)nc4)cn3C)cn2C)CC1 | > 32 µg/mL | > 32 µg/mL | > 32 µg/mL | > 32 µg/mL | > 32 µg/mL | 3 (≈ 4.39 µM) | > 32 µg/mL | 2 µg/mL
11 | Cn1cc(NC(=O)c2cc(NC(=O)c3ccccc3)cn2C)cc1C(=O)NCCC(=N)N.O=C(O)C(F)(F)F | > 32 µg/mL | > 32 µg/mL | > 32 µg/mL | > 32 µg/mL | > 32 µg/mL | 7.43 | > 32 µg/mL | > 32 µg/mL
12 | COc1ccc(C(=N)Nc2cc(C(=O)Nc3cc(C(=O)NCCN4CCOCC4)n(CCCc4cn(CCc5ccccc5)nn4)c3)n(C)c2)cc1.O=C(O)C(F)(F)F.O=C(O)C(F)(F)F | > 32 µg/mL | > 32 µg/mL | > 32 µg/mL | > 32 µg/mL | > 32 µg/mL | > 32 | > 32 µg/mL | > 32 µg/mL
13 | CN(C)c1ccc(/C=C/c2ccc(C(=O)Nc3cc(C(=O)Nc4cc(C(=O)NCCN5CCOCC5)n(C)c4)n(C)c3)cn2)cc1.O=C(O)C(F)(F)F | 2 µg/mL | > 32 µg/mL | > 32 µg/mL | > 32 µg/mL | 1 µg/mL | 1.11 | > 32 µg/mL | 1 µg/mL
14 | COc1ccc(/C=C/c2ccc(C(=O)Nc3cc(C(=O)Nc4cc(C(=O)NCCN5CCOCC5)n(CCCc5cn(CCc6ccccc6)nn5)c4)n(C)c3)cn2)cc1 | > 32 µg/mL | > 32 µg/mL | > 32 µg/mL | > 32 µg/mL | > 32 µg/mL | > 32 | > 32 µg/mL | > 32 µg/mL
15 | COc1cccc(C(=N)Nc2cc(C(=O)Nc3cc(C(=O)Nc4nc(C(=O)NCCCN(C)C)c(CCC(C)C)s4)n(C)c3)n(C)c2)c1.O=C(O)C(F)(F)F.O=C(O)C(F)(F)F | > 32 µg/mL | > 32 µg/mL | > 32 µg/mL | 32 µg/mL | 2 µg/mL | > 32 | > 32 µg/mL | 2 µg/mL
16 | COCCOC1CCN(CCNC(=O)c2cc(NC(=O)c3cc(NC(=O)c4ccc(/C=C/c5ccc(OC)cc5)cc4)cn3C)cn2C)CC1.O=S(=O)(O)O | > 32 µg/mL | > 32 µg/mL | > 32 µg/mL | > 32 µg/mL | > 32 µg/mL | 1.57 | > 32 µg/mL | 16 µg/mL
17 | COc1cccc(C(=N)Nc2cc(C(=O)Nc3nc(C(=O)NCCN4CCOCC4)c(CCc4ccccc4)s3)n(C)c2)c1.O=C(O)C(F)(F)F.O=C(O)C(F)(F)F | > 32 µg/mL | > 32 µg/mL | > 32 µg/mL | > 32 µg/mL | 16 µg/mL | 2.59 | > 32 µg/mL | 32 µg/mL
18 | Cn1cc(NC(=O)c2cc(NC(=O)c3ccc(/C=C/c4cnc5ccccc5c4)cc3)cn2C)cc1C(=O)NCC[N+]1([O-])CCCCC1.O=C(O)C(F)(F)F | > 32 µg/mL | > 32 µg/mL | > 32 µg/mL | > 32 µg/mL | > 32 µg/mL | 2.97 | > 32 µg/mL | > 32 µg/mL
19 | COc1cccc(/C=C/c2ccc(C(=O)Nc3cc(C(=O)Nc4cc(C(=O)NCCN5CCC(O)CC5)n(C)c4)n(C)c3)cc2)c1.O=C(O)C(F)(F)F | > 32 µg/mL | > 32 µg/mL | > 32 µg/mL | > 32 µg/mL | > 32 µg/mL | 11.7 | > 32 µg/mL | 16 µg/mL
20 | Cn1cc(NC(=O)c2ccc(/C=C/c3ccncc3)cc2)cc1C(=O)Nc1cc(C(=O)NCCN2CCOCC2)n(CCCN2CCOCC2)c1.O=C(O)C(F)(F)F.O=C(O)C(F)(F)F | > 32 µg/mL | > 32 µg/mL | > 32 µg/mL | > 32 µg/mL | > 32 µg/mL | 4.65 | > 32 µg/mL | 4 µg/mL
21 | COc1cccc(/C=C/c2ccc(C(=O)Nc3cc(C(=O)Nc4cc(C(=O)NCCN5CCOCC5)n(CCCc5cn(CCc6ccccc6)nn5)c4)n(C)c3)cc2)c1.O=C(O)C(F)(F)F | > 32 µg/mL | > 32 µg/mL | > 32 µg/mL | > 32 µg/mL | 32 µg/mL | > 32 | > 32 µg/mL | > 32 µg/mL
22 | COc1ccc(/C=C/c2ccc(C(=O)Nc3cc(C(=O)Nc4cc(C(=O)NCCN5CCC(OC)CC5)n(C)c4)n(C)c3)cc2)cc1.O=C(O)C(F)(F)F | > 32 µg/mL | > 32 µg/mL | > 32 µg/mL | > 32 µg/mL | > 32 µg/mL | 6.43 | > 32 µg/mL | > 32 µg/mL
23 | Cn1cc(NC(=O)c2cc(NC(=N)c3ccccc3)cn2C)cc1C(=O)NCCC(=N)N.O=C(O)C(F)(F)F.O=C(O)C(F)(F)F | > 32 µM | > 32 µM | > 32 µM | > 32 µM | > 32 µM | > 32 | > 32 µM | > 32 µM
24 | Cc1ncc(Cn2cc(CCOS(C)(=O)=O)nn2)c(N)n1 | 1 µg/mL | > 32 µg/mL | > 32 µg/mL | > 32 µg/mL | 2 µg/mL | > 32 | > 32 µg/mL | > 32 µg/mL
25 | Cn1cc(NC(=O)c2ccc(/C=C/c3ccncc3)cc2)cc1C(=O)Nc1cc(C(=O)NCCN2CCOCC2)n(CCCSc2ccccc2)c1.O=C(O)C(F)(F)F.O=C(O)C(F)(F)F | > 32 µg/mL | > 32 µg/mL | > 32 µg/mL | > 32 µg/mL | > 32 µg/mL | > 32 | > 32 µg/mL | > 32 µg/mL
